Reference: patent publication US20250099478A1, “PLASMA KALLIKREIN INHIBITORS” (Merck Sharp & Dohme LLC, priority 2022, published 2025)

What was measured:
Human plasma kallikrein = target: T1, Human plasma kallikrein (Homo sapiens, UniProt P03952); test: Plasma Kallikrein Assay; assay type: biochemical; settings: purified Human plasma kallikrein 0.5 nM, substrate Acetyl-K-P-R-AFC; read-out: PKal IC50
T1 construct: yields a heavy chain (371 amino acids) and a light chain (248 amino acids); purchased Enzyme Research Laboratories
Procedure: (§1) The effectiveness of a compound of the present invention as an inhibitor of plasma kallikrein can be determined using a relevant purified serine protease, and an appropriate synthetic substrate. The rate of hydrolysis of the chromogenic or fluorogenic substrate by the relevant serine protease was measured both in the absence and presence of compounds of the present invention. Assays were conducted at rt or at 37° C. […] A decrease in the rate of fluorescence change in the presence of inhibitor is indicative of enzyme inhibition. Such methods are known to one skilled in the art. The results of this assay are expressed as the half-maximal inhibitory concentrations (IC50), or the inhibitory constant, Ki.
Plasma kallikrein determinations were made in 50 mM HEPES buffer at pH 7.4 containing 150 mM NaCl, 5 mM CaCl2), and 0.1% PEG 8000 (polyethylene glycol; Fisher Scientific). Determinations were made using purified Human plasma kallikrein at a final concentration of 0.5 nM (Enzyme Research Laboratories) and the synthetic substrate, Acetyl-K-P-R-AFC (Sigma #C6608) at a concentration of […].
Times required to achieve equilibration between enzyme and inhibitor were determined in control experiments. […] IC50 was determined by inflection point from a four parameter logistic curve fit. Ki was calculated using the Cheng Prusoff equation, Ki=IC50/(1+([S]/Km)).

human factor XIa = target: T2, human factor XIa (Homo sapiens, UniProt P03951); test: Factor XIa Assay; assay type: biochemical; settings: human factor XIa 0.04 nM, substrate GPR-AFC, 25° C.
T2 construct: with human (0.04 nM) factor XIa
Procedure: as §1, with “Coagulation factor XIa” for “plasma kallikrein”
Compounds were pre-incubated for 30 min at 25° C. with human (0.04 nM) factor XIa in 50 mM HEPES buffer with 150 mM sodium chloride, 5 mM calcium chloride, 0.1% PEG 8000, pH 7.4. factor XIa enzymatic activity was determined by addition of the substrate glycine-proline-arginine-7-amido-4-trifluoromethylcoumarin (GPR-AFC) and measurement of the fluorescence at 400/505 nm after a 60 min incubation at 25° C. The % inhibition for each data point was calculated from the data and analyzed using the log (inhibitor) vs. response four parameters equation to determine the half-maximal inhibitory concentrations (IC50). The IC50 were converted to equilibrium inhibitory constants (Ki) using the Cheng-Prusoff equation.

T1 sequence (P03952 391-638 limits assumed): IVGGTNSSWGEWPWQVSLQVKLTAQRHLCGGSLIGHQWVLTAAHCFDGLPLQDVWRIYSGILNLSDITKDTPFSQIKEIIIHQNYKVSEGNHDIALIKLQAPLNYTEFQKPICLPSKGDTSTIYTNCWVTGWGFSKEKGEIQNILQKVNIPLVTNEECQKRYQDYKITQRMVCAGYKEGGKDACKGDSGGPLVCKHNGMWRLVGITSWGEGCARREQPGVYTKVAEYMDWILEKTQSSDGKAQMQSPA
T1 sequence (P03952 20-390 partner limits assumed): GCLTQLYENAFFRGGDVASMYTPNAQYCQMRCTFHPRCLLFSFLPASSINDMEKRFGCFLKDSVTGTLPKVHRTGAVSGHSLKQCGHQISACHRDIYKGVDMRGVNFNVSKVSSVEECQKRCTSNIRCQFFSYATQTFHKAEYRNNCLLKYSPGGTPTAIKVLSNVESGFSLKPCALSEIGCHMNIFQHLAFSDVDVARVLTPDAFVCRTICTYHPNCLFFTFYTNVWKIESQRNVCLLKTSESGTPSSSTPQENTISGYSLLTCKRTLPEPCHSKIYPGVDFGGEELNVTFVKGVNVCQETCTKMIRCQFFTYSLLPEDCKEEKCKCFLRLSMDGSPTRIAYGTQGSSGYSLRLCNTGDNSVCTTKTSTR
T2 sequence (P03951 388-625 limits assumed): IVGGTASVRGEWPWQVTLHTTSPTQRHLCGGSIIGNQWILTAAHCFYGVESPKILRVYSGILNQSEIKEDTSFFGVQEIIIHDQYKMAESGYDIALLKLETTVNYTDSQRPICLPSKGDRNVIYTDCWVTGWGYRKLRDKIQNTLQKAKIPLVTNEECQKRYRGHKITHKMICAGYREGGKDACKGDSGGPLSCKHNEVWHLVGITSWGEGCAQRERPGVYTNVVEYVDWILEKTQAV
T2 sequence (P03951 19-387 partner limits assumed): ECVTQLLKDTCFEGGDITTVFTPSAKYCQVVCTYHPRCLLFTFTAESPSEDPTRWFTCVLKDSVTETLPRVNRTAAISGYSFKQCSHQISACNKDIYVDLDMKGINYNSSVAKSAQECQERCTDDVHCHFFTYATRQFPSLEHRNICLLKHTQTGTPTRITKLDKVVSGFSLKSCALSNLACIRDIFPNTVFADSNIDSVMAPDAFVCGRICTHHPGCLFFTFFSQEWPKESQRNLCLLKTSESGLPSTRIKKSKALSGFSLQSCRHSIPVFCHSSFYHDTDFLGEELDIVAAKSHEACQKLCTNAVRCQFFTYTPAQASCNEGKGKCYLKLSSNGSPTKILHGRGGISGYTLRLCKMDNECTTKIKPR

SMILES | IC50 (Human plasma kallikrein) [nM] | IC50 (human factor XIa) [nM]
CCC(c1cccc(S(C)(=O)=O)c1)n1cc(C(=O)N2CCC[C@@]3(C2)OC(=O)Nc2ccc(Cl)c(F)c23)cn1 (single isomer, unassigned) [Example 30] | 5.7 | 4350
CCC(c1cccc(S(C)(=O)=O)c1)n1cc(C(=O)N2CCC[C@@]3(C2)OC(=O)Nc2ccc(Cl)c(F)c23)cn1 (single isomer, unassigned) [Example 31] | 9 | 2460
CCC(c1ccc2c(c1)OCO2)n1cc(C(=O)N2CCC[C@@]3(C2)OC(=O)Nc2ccc(Cl)c(F)c23)cn1 (single isomer, unassigned) [Example 32] | 4.6 | 1790
CCC(c1ccc2c(c1)OCO2)n1cc(C(=O)N2CCC[C@@]3(C2)OC(=O)Nc2ccc(Cl)c(F)c23)cn1 (single isomer, unassigned) [Example 33] | 4.2 | 4760
CCC(c1ccnc(C(F)(F)F)c1)n1cc(C(=O)N2CCC[C@@]3(C2)OC(=O)Nc2ccc(Cl)c(F)c23)cn1 (single isomer, unassigned) [Example 37] | 2.6 | 1450
CCC(c1ccnc(C(F)(F)F)c1)n1cc(C(=O)N2CCC[C@@]3(C2)OC(=O)Nc2ccc(Cl)c(F)c23)cn1 (single isomer, unassigned) [Example 38] | 1.8 | 2060
CCC(c1ccc2[nH]ncc2c1)n1cc(C(=O)N2CCC[C@@]3(C2)OC(=O)Nc2ccc(Cl)c(F)c23)cn1 (single isomer, unassigned) [Example 39] | 4 | 1350
CCC(c1c(C)noc1C)n1cc(C(=O)N2CCC[C@@]3(C2)OC(=O)Nc2ccc(Cl)c(F)c23)cn1 (single isomer, unassigned) [Example 43] | 27.1 | 4670
CCC(c1c(C)noc1C)n1cc(C(=O)N2CCC[C@@]3(C2)OC(=O)Nc2ccc(Cl)c(F)c23)cn1 (single isomer, unassigned) [Example 44] | 5.9 | 2420
CCC(c1cc(C)c2nc[nH]c2c1)n1cc(C(=O)N2CCC[C@@]3(C2)OC(=O)Nc2ccc(Cl)c(F)c23)cn1 (single isomer, unassigned) [Example 45, (4R)-6-Chloro-5-fluoro-1′-(1-((R or S)-1-(4-methyl-1H-benzo[d]imidazol-6-yl)propyl)-1H-pyrazole-4-carbonyl)spiro[benzo[d][1,3]oxazine-4,3′-piperidin]-2(1H)-one] | 0.8 | 1420
CCC(c1cc(C)c2nc[nH]c2c1)n1cc(C(=O)N2CCC[C@@]3(C2)OC(=O)Nc2ccc(Cl)c(F)c23)cn1 (single isomer, unassigned) [Example 46, (4R)-6-Chloro-5-fluoro-1′-(1-((S or R)-1-(4-methyl-1H-benzo[d]imidazol-6-yl)propyl)-1H-pyrazole-4-carbonyl)spiro[benzo[d][1,3]oxazine-4,3′-piperidin]-2(1H)-one] | 1.2 | 846
O=C1Nc2ccc(Cl)c(F)c2[C@@]2(CCCN(C(=O)c3nnc(Cc4ccc(CO)c(Cl)c4)[nH]3)C2)O1 [Example 125, (R)-6-Chloro-1′-(5-(3-chloro-4-(hydroxymethyl)benzyl)-4H-1,2,4-triazole-3-carbonyl)-5-fluorospiro[benzo[d][1,3]oxazine-4,3′-piperidin]-2(1H)-one] | 20.3 | 
Cc1ccc(Cc2nnc(C(=O)N3CCC[C@@]4(C3)OC(=O)Nc3ccc(Cl)c(F)c34)[nH]2)cc1C [Example 126, (R)-6-Chloro-1′-(5-(3,4-dimethylbenzyl)-4H-1,2,4-triazole-3-carbonyl)-5-fluorospiro[benzo[d][1,3]oxazine-4,3′-piperidin]-2(1H)-one] | 33.1 | 
O=C1Nc2ccc(Cl)c(F)c2[C@@]2(CCCN(C(=O)c3nc(C(O)c4ccc(F)cc4)n[nH]3)C2)O1 (stereo partly drawn) [Example 127, (4R)-6-Chloro-5-fluoro-1′-(3-((4-fluorophenyl)(hydroxy)methyl)-1H-1,2,4-triazole-5-carbonyl)spiro[benzo[d][1,3]oxazine-4,3′-piperidin]-2(1H)-one] | 39.9 | 

Results, then the compound that gave them:

IC50 (Human plasma kallikrein) [nM] | IC50 (human factor XIa) [nM] | SMILES
6.9 | 1570 | O=C1Nc2ccc(Cl)c(F)c2[C@@]2(CCCN(C(=O)c3cnn([C@@H](CC4CC4)c4ccccc4)c3)C2)O1 (single isomer, unassigned) [Example 1]
3.2 | 206 | O=C1Nc2ccc(Cl)c(F)c2[C@@]2(CCCN(C(=O)c3cnn([C@H](CC4CC4)c4ccccc4)c3)C2)O1 (single isomer, unassigned) [Example 2]
10.4 | 210 | CCC(c1ccc(F)cc1)n1cc(C(=O)N2CCC[C@@]3(C2)OC(=O)Nc2ccc(Cl)c(F)c23)cn1 (single isomer, unassigned) [Example 25]
6.9 | 7640 | CCC(c1ccc(F)cc1)n1cc(C(=O)N2CCC[C@@]3(C2)OC(=O)Nc2ccc(Cl)c(F)c23)cn1 (single isomer, unassigned) [Example 26]
6.9 | 1570 | O=C1Nc2ccc(Cl)c(F)c2[C@@]2(CCCN(C(=O)c3cnn(C(CC4CC4)c4ccccc4)c3)C2)O1 (single isomer, unassigned) [Example 29]
2.6 | 1020 | CCC(c1ccc2cnccc2c1)n1cc(C(=O)N2CCC[C@@]3(C2)OC(=O)Nc2ccc(Cl)c(F)c23)cn1 (single isomer, unassigned) [Example 35]
2.8 | 2490 | CCC(c1ccc2cnccc2c1)n1cc(C(=O)N2CCC[C@@]3(C2)OC(=O)Nc2ccc(Cl)c(F)c23)cn1 (single isomer, unassigned) [Example 36]
7.1 | 1000 | CCC(c1ccc2[nH]ncc2c1)n1cc(C(=O)N2CCC[C@@]3(C2)OC(=O)Nc2ccc(Cl)c(F)c23)cn1 (single isomer, unassigned) [Example 40]
14.1 | 5230 | CCC(c1ccc2ncncc2c1)n1cc(C(=O)N2CCC[C@@]3(C2)OC(=O)Nc2ccc(Cl)c(F)c23)cn1 (single isomer, unassigned) [Example 42]
 | 1380 | O=C1Nc2ccc(Cl)c(F)c2[C@@]2(CCCN(C(=O)c3cnn(Cc4ccccc4)c3)C2)O1 [Example 3, (R)-1′-(1-Benzyl-1H-pyrazole-4-carbonyl)-6-chloro-5-fluorospiro[benzo[d][1,3]oxazine-4,3′-piperidin]-2(1H)-one]
6.1 |  | O=C1Nc2ccc(Cl)c(F)c2[C@]2(CCN(C(=O)c3cnn(Cc4ccc(Cn5ccccc5=O)cc4)c3)C2)O1 [Example 132]
15.1 |  | O=C1Nc2ccc(Cl)c(F)c2[C@]2(CCN(C(=O)c3cnn(Cc4ccc(Cn5ccccc5=O)cn4)c3)C2)O1 [Example 133, (S)-6-Chloro-5-fluoro-1′-(1-((5-((2-oxopyridin-1(2H)-yl)methyl)pyridin-2-yl)methyl)-1H-pyrazole-4-carbonyl)spiro[benzo[d][1,3]oxazine-4,3′-pyrrolidin]-2(1H)-one]
20.8 |  | Cc1cnn(Cc2ccc(Cn3cc(C(=O)N4CC[C@]5(C4)OC(=O)Nc4ccc(Cl)c(F)c45)cn3)cc2)c1 [Example 134, (S)-6-Chloro-5-fluoro-1′-(1-(4-((4-methyl-1H-pyrazol-1-yl)methyl)benzyl)-1H-pyrazole-4-carbonyl)spiro[benzo[d][1,3]oxazine-4,3′-pyrrolidin]-2(1H)-one]
7.5 |  | O=C1Nc2ccc(Cl)c(F)c2[C@]2(CCN(C(=O)c3cn(Cc4ccc(Cn5ccccc5=O)cc4)nc3C(F)(F)F)C2)O1 [Example 135, (S)-6-Chloro-5-fluoro-1′-(1-(4-((2-oxopyridin-1(2H)-yl)methyl)benzyl)-3-(trifluoromethyl)-1H-pyrazole-4-carbonyl)spiro[benzo[d][1,3]oxazine-4,3′-pyrrolidin]-2(1H)-one]
5.6 |  | O=C1Nc2ccc(Cl)c(F)c2[C@]2(CCN(C(=O)C3(F)CCN(Cc4ccc(Cn5ccccc5=O)cc4)CC3)C2)O1 [Example 138, (4S)-6-Chloro-5-fluoro-1′-(4-fluoro-1-(4-((2-oxopyridin-1(2H)-yl)methyl)benzyl)piperidine-4-carbonyl)spiro[benzo[d][1,3]oxazine-4,3′-pyrrolidin]-2(1H)-one]
